Results: PMC3745430, “Novel Multiplexed Assay for Identifying SH2 Domain Antagonists of STAT Family Proteins” (PLoS ONE, 2013)

How the values were obtained:
[1] = system: STAT3 nuclear translocation in HeLa cells; assay: STAT3 nuclear translocation assay in oncostatin M-stimulated HeLa cells; assay type: cell-based; settings: for Fluorescent intensity of STAT3 in the nuclei, of the vehicle treatment: 1 h pretreatment, oncostatin M 30 ng/mL 10 min, HeLa
Method: The Cellomics STAT3 Activation Kit (Thermo Scientific) was used for the nuclear translocation assay. HeLa cells were incubated in a 96-well microplate for 24 h. Cells were pretreated with the test compounds for 1 hour, and 30 ng/mL (w/v) of oncostatin M was applied and the mixture was incubated for 10 min. The subsequent procedures were performed according to the manufacturer’s instructions. The cells were scanned with an ArrayScan VTI reader (Thermo Scientific), and analyzed with the Cytoplasm to Nucleus Translocation Application. The mean fluorescent values in the nuclei were calculated. The signals for vehicle treatment and no treatment (without oncostatin M) were represented as 100% and 0%, respectively, and the relative signal intensity was also calculated.

STAT1-SH2 = target: T1, STAT1-SH2 (Homo sapiens, UniProt P42224); assay: STAT1-SH2 binding AlphaScreen assay; settings: AlphaScreen assay (Figure S8A)
T1 construct: made in house
T1 sequence (P42224 1-750): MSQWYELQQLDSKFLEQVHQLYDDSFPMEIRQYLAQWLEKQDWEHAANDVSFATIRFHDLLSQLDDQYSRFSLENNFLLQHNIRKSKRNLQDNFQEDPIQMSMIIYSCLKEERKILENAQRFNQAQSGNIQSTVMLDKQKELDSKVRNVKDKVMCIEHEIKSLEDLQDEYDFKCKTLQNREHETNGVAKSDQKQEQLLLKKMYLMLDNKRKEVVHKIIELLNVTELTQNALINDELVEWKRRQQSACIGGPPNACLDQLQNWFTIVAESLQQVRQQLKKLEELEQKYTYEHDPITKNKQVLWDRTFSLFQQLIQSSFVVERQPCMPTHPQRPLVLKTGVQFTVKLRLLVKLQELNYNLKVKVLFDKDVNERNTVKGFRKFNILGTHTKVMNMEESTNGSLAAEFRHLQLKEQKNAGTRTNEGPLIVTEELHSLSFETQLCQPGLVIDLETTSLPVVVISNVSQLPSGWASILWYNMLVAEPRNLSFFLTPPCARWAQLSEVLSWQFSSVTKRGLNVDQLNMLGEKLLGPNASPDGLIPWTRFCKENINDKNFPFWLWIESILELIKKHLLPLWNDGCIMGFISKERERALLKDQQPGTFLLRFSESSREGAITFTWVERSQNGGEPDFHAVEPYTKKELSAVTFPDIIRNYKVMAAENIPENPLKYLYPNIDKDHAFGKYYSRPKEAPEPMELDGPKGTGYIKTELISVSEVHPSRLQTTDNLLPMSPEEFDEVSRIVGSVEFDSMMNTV
Method: Both AlphaLISA and AlphaScreen are bead-based nonradioactive binding assay systems for detecting biomolecular interactions in a microplate format. The binding of the biological partners brings the donor and acceptor beads into close proximity, and AlphaLISA produces a specific signal around 615 nm and AlphaScreen emits a broad signal between 520 and 620 nm. The assays were performed in a final reaction volume of 25 µL of the assay buffer, which contained 10 mM HEPES-NaOH (pH 7.4), 50 mM NaCl, 1 mM EDTA (pH 8.0), 0.1% (w/v) NP-40, and 10 ng/µL (w/v) BSA in a 96-well microplate at 25°C. […] Streptavidin-coated donor beads (0.25 µg/well) and anti-DIG AlphaLISA acceptor beads (0.25 µg/well) were added and incubated for 90 min before the signals were measured with EnVison Xcite (PerkinElmer Life Sciences). […] Streptavidin-coated donor beads (0.25 µg/well) and anti-FITC AlphaScreen acceptor beads (0.25 µg/well) were added and incubated for 90 min before the signals were measured with EnVison Xcite. […] Streptavidin-coated donor beads (0.50 µg/well), anti-DIG AlphaLISA (0.25 µg/well), and anti-FITC AlphaScreen acceptor beads (0.25 µg/well) were added and incubated for 90 min before the signals were measured with EnVison Xcite. […] The bound state was measured by incubating the labeled peptide and the protein without test compounds. […] The IC50 value was calculated by Graph pad prism 4.0. […]

Inhibition of STAT1-SH2 binding (STAT1-SH2): inhibited neither
SMILES: O=C1C=CC(=NC2=C(Cl)C(=O)c3ccccc3C2=O)C=C1 [Compound 1]
Fluorescent intensity of STAT3 in the nuclei, of the vehicle treatment ([1]; 60 µM): 51% | Fluorescent intensity of STAT3 in the nuclei, of the vehicle treatment ([1]; 100 µM): 31% | Effect on STAT3 nuclear translocation ([1]; HeLa cells, pretreatment before oncostatin M (Figure 6, Figure S9)): reduced the STAT3 nuclear translocation in a dose-dependent manner
